Laboratory results as given in ChEMBL document CHEMBL4118128, “Discovery of chiral dihydropyridopyrimidinones as potent, selective and orally bioavailable inhibitors of AKT” (Bioorg Med Chem Lett, 2018).
≈ marks a conversion by molar mass, not a printed value. Calls of active or inactive are those of the source. The rule behind the calls is not given here.

How the values were obtained:
[1] = biological target: Ribosomal protein S6 kinase alpha-1 (Homo sapiens, UniProt Q15418); experiment: Inhibition of human RSK1 measured at apparent ATP Km level
[2] = organism: Homo sapiens; experiment: Selectivity index, ratio of IC50 for human recombinant ROCK2 (11 to 552 residues) expressed in insect cells to IC50 for human recombinant AKT1 expressed in insect cells
[3] = biological target: Ribosomal protein S6 kinase beta-1 (Homo sapiens, UniProt P23443); experiment: Inhibition of human p70S6K measured at apparent ATP Km level
[4] = biological target: T1, RAC-alpha serine/threonine-protein kinase (Homo sapiens, UniProt P31749); experiment: Inhibition of human recombinant AKT1 expressed in insect cells incubated for 60 mins measured at apparent ATP Km level by kinase ADP-FP assay
[5] = biological target: Rho-associated protein kinase 2 (Homo sapiens, UniProt O75116); experiment: Inhibition of histidine-tagged human recombinant ROCK2 (11 to 552 residues) expressed in insect cells using RFARKGSLRQKNV substrate incubated for 60 mins measured at apparent ATP Km level by kinase ADP-FP assay
[6] = Lipophilicity, log P of the compound; type: physicochemical; conditions: octanol/water
[7] = Inhibition of human PKA measured at apparent ATP Km level
[8] = Aqueous solubility in pH 7.4 buffer; type: physicochemical
[9] = biological target: T1, RAC-alpha serine/threonine-protein kinase; experiment: Inhibition of AKT1 in human U87MG cells assessed as reduction in GSK3beta Ser9 phosphorylation incubated for 1 hr by alpha screen Surefire assay; type: cell-based
[10] = biological target: Protein kinase C beta type (Homo sapiens, UniProt P05771); experiment: Inhibition of human PKCbeta2 measured at apparent ATP Km level
[11] = biological target: Voltage-gated inwardly rectifying potassium channel KCNH2 (Homo sapiens, UniProt Q12809); experiment: Inhibition of human ERG
[12] = system: Rattus norvegicus; experiment: Intrinsic unbound clearance in Sprague-Dawley rat at 10 mg/kg, iv by LC-MS/MS method; type: ADME, organism-based; conditions: in vivo
[13] = system: Mus musculus; experiment: Ratio of AUC (0 to 24 hrs) in P-gp and BCRP knockout mouse at 2.5 mg/kg, po to AUC (0 to 24 hrs) in wild type mouse at 2.5 mg/kg, po; type: ADME, organism-based; conditions: in vivo
[14] = Half life in Sprague-Dawley rat at 10 mg/kg, iv by LC-MS/MS method; type: ADME, organism-based; conditions: in vivo
[15] = Clearance in Sprague-Dawley rat at 10 mg/kg, iv by LC-MS/MS method; type: ADME, organism-based; conditions: in vivo
[16] = Cmax in P-gp and BCRP knockout mouse at 2.5 mg/kg, po by LC-MS/MS method; type: ADME, organism-based; set-up: dose 2.5 mg/kg, route oral; conditions: in vivo
[17] = Oral bioavailability in Sprague-Dawley rat at 5 mg/kg by LC-MS/MS method; type: ADME, organism-based; conditions: in vivo
[18] = AUC (0 to 24 hrs) in Sprague-Dawley rat at 5 mg/kg, po by LC-MS/MS method; type: ADME, organism-based; set-up: dose 5 mg/kg, time < 24 hr, route oral; conditions: in vivo
[19] = AUC (0 to 24 hrs) in wild type mouse at 2.5 mg/kg, po by LC-MS/MS method; type: ADME, organism-based; set-up: time < 24 hr, dose 2.5 mg/kg, route oral; conditions: in vivo
[20] = AUC (0 to 24 hrs) in P-gp and BCRP knockout mouse at 2.5 mg/kg, po by LC-MS/MS method; type: ADME, organism-based; set-up: time < 24 hr, dose 2.5 mg/kg, route oral; conditions: in vivo
[21] = Cmax in wild type mouse at 2.5 mg/kg, po by LC-MS/MS method; type: ADME, organism-based; set-up: dose 2.5 mg/kg, route oral; conditions: in vivo
[22] = Volume of distribution at steady state in Sprague-Dawley rat at 10 mg/kg, iv or 5 mg/kg, po by LC-MS/MS method; type: ADME, organism-based; conditions: in vivo, read-out: Vdss
[23] = system: Rattus norvegicus; experiment: Toxicity in human U87MG cells xenografted rat assessed as induction of body weight loss at 25 to 50 mg/kg, po qd for 4 weeks; type: organism-based; conditions: in vivo, 672 h
[24] = system: U-87 MG; experiment: Antitumor activity against human U87MG cells xenografted in rat assessed as inhibition of tumor growth at 25 to 50 mg/kg, po qd for 4 weeks; type: functional, organism-based; conditions: U-87MG ATCC
[25] = system: Rattus norvegicus; experiment: Toxicity in human U87MG cells xenografted rat assessed as induction of body weight loss at 25 mg/kg, po bid for 4 weeks; type: organism-based; conditions: in vivo, 672 h
[26] = system: U-87 MG; experiment: Antitumor activity against human U87MG cells xenografted in rat assessed as inhibition of tumor growth at 25 mg/kg, po bid for 4 weeks; type: functional, organism-based; conditions: U-87MG ATCC

Rho-associated protein kinase 2, sequence (O75116 whole entry, the tested form may be a part): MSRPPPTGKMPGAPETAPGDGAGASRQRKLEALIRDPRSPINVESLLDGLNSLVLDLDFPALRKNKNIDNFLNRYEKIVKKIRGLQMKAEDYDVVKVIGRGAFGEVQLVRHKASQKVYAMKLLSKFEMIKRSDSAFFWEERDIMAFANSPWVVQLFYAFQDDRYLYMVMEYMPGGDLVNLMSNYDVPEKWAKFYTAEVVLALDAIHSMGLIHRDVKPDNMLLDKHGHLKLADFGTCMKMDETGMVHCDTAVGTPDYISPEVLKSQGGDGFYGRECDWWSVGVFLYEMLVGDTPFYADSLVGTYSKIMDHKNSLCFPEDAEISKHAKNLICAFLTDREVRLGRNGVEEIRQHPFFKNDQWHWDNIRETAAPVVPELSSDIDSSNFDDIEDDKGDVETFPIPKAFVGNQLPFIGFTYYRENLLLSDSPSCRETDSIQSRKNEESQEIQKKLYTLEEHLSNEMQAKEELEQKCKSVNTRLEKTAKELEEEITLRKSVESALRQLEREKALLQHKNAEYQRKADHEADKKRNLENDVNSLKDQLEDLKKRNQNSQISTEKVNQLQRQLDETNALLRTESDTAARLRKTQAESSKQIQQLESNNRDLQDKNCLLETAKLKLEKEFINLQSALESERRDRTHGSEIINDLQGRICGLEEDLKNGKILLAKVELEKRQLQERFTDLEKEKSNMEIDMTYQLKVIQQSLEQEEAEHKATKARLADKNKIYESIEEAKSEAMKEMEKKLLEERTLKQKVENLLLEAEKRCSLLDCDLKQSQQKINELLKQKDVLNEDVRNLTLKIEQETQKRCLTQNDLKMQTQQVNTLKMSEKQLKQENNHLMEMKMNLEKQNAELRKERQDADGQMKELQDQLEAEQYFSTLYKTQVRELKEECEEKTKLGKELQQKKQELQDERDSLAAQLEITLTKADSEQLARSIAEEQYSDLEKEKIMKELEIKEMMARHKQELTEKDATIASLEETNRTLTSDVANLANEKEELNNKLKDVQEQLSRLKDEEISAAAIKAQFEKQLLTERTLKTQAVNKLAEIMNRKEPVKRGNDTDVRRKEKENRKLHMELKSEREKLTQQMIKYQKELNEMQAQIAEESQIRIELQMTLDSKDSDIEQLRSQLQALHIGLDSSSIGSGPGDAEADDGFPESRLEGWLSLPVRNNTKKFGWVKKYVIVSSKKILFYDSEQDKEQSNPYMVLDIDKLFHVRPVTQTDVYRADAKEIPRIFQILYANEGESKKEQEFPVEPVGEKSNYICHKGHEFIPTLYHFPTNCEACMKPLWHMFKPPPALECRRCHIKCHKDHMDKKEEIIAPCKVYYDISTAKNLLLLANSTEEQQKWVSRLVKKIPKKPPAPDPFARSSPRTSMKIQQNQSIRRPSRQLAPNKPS
Protein kinase C beta type, sequence (P05771 whole entry): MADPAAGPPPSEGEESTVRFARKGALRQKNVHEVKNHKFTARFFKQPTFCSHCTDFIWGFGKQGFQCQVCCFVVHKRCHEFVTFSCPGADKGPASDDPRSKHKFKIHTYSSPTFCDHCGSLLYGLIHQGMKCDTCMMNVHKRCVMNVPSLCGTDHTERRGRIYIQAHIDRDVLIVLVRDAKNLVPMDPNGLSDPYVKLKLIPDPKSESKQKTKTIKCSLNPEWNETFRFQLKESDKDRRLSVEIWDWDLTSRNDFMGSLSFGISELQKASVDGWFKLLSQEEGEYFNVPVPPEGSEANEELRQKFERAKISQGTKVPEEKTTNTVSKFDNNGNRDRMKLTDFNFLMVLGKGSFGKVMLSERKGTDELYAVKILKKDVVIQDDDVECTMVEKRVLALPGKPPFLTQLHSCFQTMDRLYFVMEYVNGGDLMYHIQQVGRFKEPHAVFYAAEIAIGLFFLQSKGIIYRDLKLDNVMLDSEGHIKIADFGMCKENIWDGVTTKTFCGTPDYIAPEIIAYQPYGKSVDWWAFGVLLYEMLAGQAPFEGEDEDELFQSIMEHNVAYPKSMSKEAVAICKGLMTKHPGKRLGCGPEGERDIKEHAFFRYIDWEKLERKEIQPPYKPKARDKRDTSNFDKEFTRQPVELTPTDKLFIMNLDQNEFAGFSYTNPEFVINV
Ribosomal protein S6 kinase beta-1, sequence (P23443 whole entry): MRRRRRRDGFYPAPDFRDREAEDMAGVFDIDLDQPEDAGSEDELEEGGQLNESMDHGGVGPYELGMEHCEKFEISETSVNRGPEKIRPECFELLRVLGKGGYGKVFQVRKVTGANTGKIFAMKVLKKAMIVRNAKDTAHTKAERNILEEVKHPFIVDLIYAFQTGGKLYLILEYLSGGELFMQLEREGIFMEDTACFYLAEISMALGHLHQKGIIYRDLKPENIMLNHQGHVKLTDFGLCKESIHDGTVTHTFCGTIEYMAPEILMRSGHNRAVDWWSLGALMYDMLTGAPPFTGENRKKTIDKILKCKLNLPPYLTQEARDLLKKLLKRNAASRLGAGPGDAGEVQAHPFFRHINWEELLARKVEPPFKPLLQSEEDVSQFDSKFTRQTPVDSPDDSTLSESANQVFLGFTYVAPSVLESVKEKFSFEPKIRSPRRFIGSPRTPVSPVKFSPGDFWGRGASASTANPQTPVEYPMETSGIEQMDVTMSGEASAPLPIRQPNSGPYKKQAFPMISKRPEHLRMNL
Voltage-gated inwardly rectifying potassium channel KCNH2, sequence (Q12809 whole entry): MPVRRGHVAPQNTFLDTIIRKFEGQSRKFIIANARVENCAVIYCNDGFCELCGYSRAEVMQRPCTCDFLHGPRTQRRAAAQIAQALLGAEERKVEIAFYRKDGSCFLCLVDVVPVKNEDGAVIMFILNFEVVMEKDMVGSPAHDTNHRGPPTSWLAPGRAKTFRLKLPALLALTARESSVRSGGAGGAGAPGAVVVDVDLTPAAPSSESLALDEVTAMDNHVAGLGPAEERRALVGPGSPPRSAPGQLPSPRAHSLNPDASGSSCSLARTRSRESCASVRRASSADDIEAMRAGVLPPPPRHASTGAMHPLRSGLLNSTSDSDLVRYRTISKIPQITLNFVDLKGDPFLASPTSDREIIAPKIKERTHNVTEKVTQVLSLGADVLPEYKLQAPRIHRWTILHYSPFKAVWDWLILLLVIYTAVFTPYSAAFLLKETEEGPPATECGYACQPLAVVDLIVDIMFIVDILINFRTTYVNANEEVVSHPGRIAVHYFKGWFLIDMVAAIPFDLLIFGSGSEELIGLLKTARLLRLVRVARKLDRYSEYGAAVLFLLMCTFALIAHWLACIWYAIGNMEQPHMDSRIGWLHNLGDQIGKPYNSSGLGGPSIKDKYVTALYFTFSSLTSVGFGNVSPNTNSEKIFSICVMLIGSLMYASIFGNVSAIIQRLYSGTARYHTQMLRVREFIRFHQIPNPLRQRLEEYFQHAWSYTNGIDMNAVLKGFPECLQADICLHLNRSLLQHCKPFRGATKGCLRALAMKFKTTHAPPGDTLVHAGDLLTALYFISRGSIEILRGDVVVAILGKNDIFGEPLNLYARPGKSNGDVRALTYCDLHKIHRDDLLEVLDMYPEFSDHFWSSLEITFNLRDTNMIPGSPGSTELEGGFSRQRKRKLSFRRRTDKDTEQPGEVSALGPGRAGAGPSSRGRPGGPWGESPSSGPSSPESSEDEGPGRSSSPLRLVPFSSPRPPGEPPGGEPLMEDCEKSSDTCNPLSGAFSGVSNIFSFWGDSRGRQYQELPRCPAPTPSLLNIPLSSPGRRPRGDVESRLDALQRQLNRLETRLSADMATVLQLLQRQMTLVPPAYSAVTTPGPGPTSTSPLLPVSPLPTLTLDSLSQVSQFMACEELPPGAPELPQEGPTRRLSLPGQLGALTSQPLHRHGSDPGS
Ribosomal protein S6 kinase alpha-1, sequence (Q15418 whole entry, the tested form may be a part): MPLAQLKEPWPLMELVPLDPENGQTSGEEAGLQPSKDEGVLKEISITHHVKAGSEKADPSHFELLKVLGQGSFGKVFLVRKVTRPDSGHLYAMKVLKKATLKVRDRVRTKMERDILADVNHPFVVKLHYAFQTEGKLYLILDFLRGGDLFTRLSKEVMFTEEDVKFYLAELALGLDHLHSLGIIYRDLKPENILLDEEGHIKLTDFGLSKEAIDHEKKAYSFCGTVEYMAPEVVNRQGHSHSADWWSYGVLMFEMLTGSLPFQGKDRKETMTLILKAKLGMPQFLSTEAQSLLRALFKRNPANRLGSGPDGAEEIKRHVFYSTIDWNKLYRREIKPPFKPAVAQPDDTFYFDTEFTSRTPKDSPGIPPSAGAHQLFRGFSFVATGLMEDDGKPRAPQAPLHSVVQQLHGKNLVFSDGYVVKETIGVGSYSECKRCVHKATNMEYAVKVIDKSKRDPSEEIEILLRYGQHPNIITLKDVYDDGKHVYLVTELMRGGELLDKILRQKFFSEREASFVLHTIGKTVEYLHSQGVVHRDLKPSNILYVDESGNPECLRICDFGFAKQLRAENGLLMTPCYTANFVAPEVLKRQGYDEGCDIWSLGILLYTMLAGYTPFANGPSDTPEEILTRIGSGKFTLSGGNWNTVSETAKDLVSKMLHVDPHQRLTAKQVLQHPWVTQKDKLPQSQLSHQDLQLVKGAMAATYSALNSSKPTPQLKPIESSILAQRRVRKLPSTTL
T1 sequence (P31749 whole entry, the tested form may be a part): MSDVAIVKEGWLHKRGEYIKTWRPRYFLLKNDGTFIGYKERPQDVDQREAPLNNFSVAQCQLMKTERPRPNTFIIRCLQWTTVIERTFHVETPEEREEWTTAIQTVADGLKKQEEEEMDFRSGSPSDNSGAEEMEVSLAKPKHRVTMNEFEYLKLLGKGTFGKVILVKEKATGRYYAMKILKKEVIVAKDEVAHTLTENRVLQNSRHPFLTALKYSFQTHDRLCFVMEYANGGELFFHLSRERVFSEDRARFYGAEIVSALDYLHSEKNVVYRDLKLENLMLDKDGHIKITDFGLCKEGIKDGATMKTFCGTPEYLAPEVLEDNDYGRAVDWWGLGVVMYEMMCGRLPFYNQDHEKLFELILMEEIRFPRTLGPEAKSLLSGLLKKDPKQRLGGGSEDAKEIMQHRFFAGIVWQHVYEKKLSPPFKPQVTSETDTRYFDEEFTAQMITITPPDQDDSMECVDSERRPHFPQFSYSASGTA

IC50 [1] [nM] | IC50 [3] [nM] | IC50 [4] [nM] | IC50 [5] [nM] | logP [6] | IC50 [7] [nM] | solubility [8] [µg/mL] | IC50 [9] [nM] | IC50 [10] [nM] | CL free [12] [mL/min/kg] | half-life [14] [h] | clearance [15] [mL/min/kg] | Cmax [16] [ng/mL] | bioavailability [17] [%] | AUC(0-t) at 24 h [18] [ng·h/mL] | AUC(0-t) at 24 h [19] [ng·h/mL] | AUC(0-t) at 24 h [20] [ng·h/mL] | Vd [22] [L/kg] | SMILES | Ratio IC50 [2] | INH [11] [µM] | other results
20 | 35 | 3 | > 20000 | 4.84 | 653 | 35 (≈ 61.2 µM) | 39 | 36 |  |  |  |  |  |  |  |  |  | C[C@@H]1CC(=O)Nc2ncnc(N3CCC(c4nc(-c5ccc(F)c(C(F)(F)F)c5)cn4CCN4CCCC4)CC3)c21 | > 1000 | 1.74 | 
 | 4 |  |  |  |  |  |  |  |  |  |  |  |  |  |  |  |  | Cn1cc(-c2ccc(F)c(C(F)(F)F)c2)nc1C1CCN(c2ncnc3[nH]ncc23)CC1 [LY-2584702] |  |  | 

Continued, molecule first:

SMILES | IC50 [1] [nM] | IC50 [3] [nM] | IC50 [4] [nM] | IC50 [5] [nM] | logP [6] | IC50 [7] [nM] | solubility [8] [µg/mL] | IC50 [9] [nM] | IC50 [10] [nM] | CL free [12] [mL/min/kg] | half-life [14] [h] | clearance [15] [mL/min/kg] | Cmax [16] [ng/mL] | bioavailability [17] [%] | AUC(0-t) at 24 h [18] [ng·h/mL] | AUC(0-t) at 24 h [19] [ng·h/mL] | AUC(0-t) at 24 h [20] [ng·h/mL] | Vd [22] [L/kg] | Ratio IC50 [2] | INH [11] [µM] | other results
C[C@@H]1CC(=O)Nc2ncnc(N3CCC(c4nc(C5CCOCC5)cn4CCN4CCCC4)CC3)c21 | 699 | 1900 | 4 | > 20000 | 0.95 | 412 | > 2000 | 230 | 20000 | 85 | 8.6 | 64 | 189 | 14 | 173 | 108 | 501 | 13.8 | > 1000 | > 100 | Ratio [13]: 5; Cmax [21]: 33 ng/mL
C[C@@H]1CC(=O)Nc2ncnc(N3CCC(c4nc(C(F)(F)F)cn4CCN4CCCC4)CC3)c21 | 272 | 876 | 11 | > 20000 | 1.66 | 124 | 1860 (≈ 3900 µM) | 2460 | 16300 | 66 | 3 | 2.18 |  | 64 | 24100 |  |  | 0.65 | > 1000 | > 100 | 
C[C@@H]1CC(=O)Nc2ncnc(N3CCC(c4nc(CCC(F)(F)F)cn4CCN4CCCC4)CC3)c21 | 568 | 399 | 5 | > 20000 | 2.39 | 84 | 990 (≈ 1960 µM) | 92 | 3980 | 43 | 2.3 | 74 | 109 | 55 | 638 | 290 | 359 | 11.6 | > 1000 | 18.5 | Activity [23]: Non-Toxic; TGI [24]: Dose-dependent effect; Activity [25]: Non-Toxic; TGI [26]: Active; Cmax [21]: 76 ng/mL
